From patent US11427546B2, “Form of isoquinoline sulfonamide” (D. WESTERN THERAPEUTICS INSTITUTE, INC., priority 2018, dated 2022)
Entries after “also recorded” stand apart in the source; their conditions may differ. Counter-ions that a name gives are not always drawn.

How the values were obtained:
Assay type in all cases: physicochemical
[1] = Heat stability comparative test; settings: 70° C., airtight glass vial
Experimental: Heat Stability Comparative Test
About 20 mg of each of the compound (1) of Reference Example 1 and the crystal of the compound (2) of the present invention obtained in an Example was weighed out in a glass vial and stored in a thermostat chamber kept at 70° C. in an airtight state (NA-100N Incubator from NISSIN) for 14 days. On Day 0, Day 7, and Day 14, compound (1) and the compound (2) of the present invention were examined for appearance and purity (HPLC).

[2] = Moisture absorption stability comparative test in the ambient atmosphere; settings: ambient atmosphere 25° C.-28° C./67%-83% RH; for appearance (moisture absorption): Day 7
Experimental: Moisture Absorption Stability Comparative Test in the Ambient Atmosphere
About 100 mg of each of the compound (1) obtained in Reference Example 1 and the compound (2) of the present invention obtained in an Example was weighed out in a plastic container and allowed to stand in the ambient atmosphere (25° C.-28° C./67%-83% RH), while minimizing the influence of wind pressure, foreign matter entry, and the like from above and all directions, for 7 days. On Day 0 and Day 7, samples were weighed and examined for appearance.

[3] = Water solubility comparative test; settings: for transparency of aqueous solution by visual observation: about 100 mg in 2 mL purified water (5% aqueous solution), room temperature; for precipitate in aqueous solution: about 100 mg in 2 mL purified water, 1 day later
Experimental: Water Solubility Comparative Test
About 100 mg of each of the compound (1) of Reference Example 1 and the crystal of the compound (2) of the present invention was weighed out in a glass vial, 2 mL of purified water was added, and the mixture was vigorously shaken in an airtight state. After being allowed to stand until the liquid surface fluctuation ceased, the aqueous solution was examined for transparency by visual observation at room temperature.

[4] = Moisture absorption stability comparative test at 50° C./70% RH
Experimental: Moisture Absorption Stability Comparative Test at 50° C./70% RH
A 100-mg weight of each of the crystals of compounds (3) and (4) obtained in Reference Examples 2 and 3, respectively, and the compound (2) of the present invention obtained in an Example was weighed out in a plastic container and allowed to stand under 50° C./70% RH conditions in a thermo-hygrostat chamber (IH400 from Yamato Scientific Co., Ltd.).

SMILES	appearance / property (heat stability) ([1]; Day 7, monohydrochloride)	appearance (moisture absorption) [2]	transparency of aqueous solution by visual observation ([3]; monohydrochloride)	precipitate in aqueous solution [3]	appearance and purity (HPLC) (heat stability) ([1]; Day 14)	percent increase in weight ([2]; Day 7, about 100 mg solid)	transparency of aqueous solution by visual observation [3]	appearance change due to moisture absorption ([4]; after 1 hour of standing)	weight increase ([4]; after 1 hour of standing, 100 mg solid)	change (appearance, weight) after prolonged standing ([4]; after 3 days of standing)
C[C@H](CNC[C@@](C)(O)c1ccccc1)NS(=O)(=O)c1ccc2cnccc2c1.Cl [compound (1), N—[(R)-1-{(S)-2-hydroxy-2-phenylpropylamino}propan-2-yl]isoquinoline-6-sulfonamide monohydrochloride, reference compound]	marked property degradation; also recorded: unstable with an evident change in appearance	evident moisture absorption phenomenon	translucent; also recorded: translucent and had not dissolved completely	a precipitate was found	–	–	–	–	–	–
C[C@H](CNC[C@@](C)(O)c1ccccc1)NS(=O)(=O)c1ccc2cnccc2c1 [compound (2), N—[(R)-1-{(S)-2-hydroxy-2-phenylpropylamino}propan-2-yl]isoquinoline-6-sulfonamide dihydrochloride anhydride]	–	no weight gain or appearance change	–	no precipitate was found	stable, with no change in appearance nor decomposition; also recorded: stable	did not at all exhibit any weight change; also recorded: no weight gain	extremely clear, showing complete dissolution; also recorded: colorless and clear	no appearance change	no appearance change nor weight gain; also recorded: did not at all exhibit any weight change	no change was observed
C[C@H](CNCCc1ccccc1)NS(=O)(=O)c1ccc2cnccc2c1.Cl.Cl [compound (3), (R)—N-{1-(phenetylamino)propan-2-yl}isoquinoline-6-sulfonamide dihydrochloride, reference compound]	–	–	–	–	–	–	–	marked appearance change due to moisture absorption	–	–
C[C@H](CNC[C@H](C)c1ccccc1)NS(=O)(=O)c1ccc2cnccc2c1.Cl.Cl [compound (4), N—[(R)-1-{(R)-2-phenyipropylamino}propan-2-yl]isoquinoline-6-sulfonamide dihydrochloride, reference compound]	–	–	–	–	–	–	–	marked appearance change due to moisture absorption	–	–
